Legend:
Type in all cases: cell-based
A2780 ovarian carcinoma = assay: In vitro cell proliferation assay (CellTiterGlo), A2780 control line; conditions: Homo sapiens, antiproliferative activity, 72 hours exposure, non RET-dependent control cell line
Description: (§1) In Vitro Cell Proliferation Assay
(§2) To evaluate the antiproliferative activity of a compound of formula (I) the following human cell lines were used: A2780 ovarian carcinoma; TT and MZ-CRC-1 medullary thyroid carcinoma, harboring a mutated RET-C634W and RET-M918T receptor respectively; LC-2/ad human lung adenocarcinoma, harboring the CCDC6-RET fusion protein. Exponentially growing cells were seeded and incubated at 37° C. in a humidified 5% CO2 atmosphere using appropriate medium supplemented with 10% Fetal Bovine Serum. 24 hours following cell plating, scalar doses of the compounds dissolved in 0.1% DMSO were added to the medium and cells were exposed to drugs for either 72 hours (A2780) or 144 hours (TT, MZ-CRC-1 and LC-2/ad), according to their different proliferation rate. At the end of treatment, cell proliferation was determined by an intracellular ATP monitoring system (CellTiterGlo—Promega), following manufacturer's instructions, and using an Envision instrument (PerkinElmer) as reader. Data obtained from compound versus vehicle treated cells were compared using Assay Explorer (Symyx Technologies Inc) software. IC50 values were calculated using sigmoidal interpolation curve fitting.
(§3) In the following Table A the antiproliferative activity of representative compounds of formula (I) on two medullary thyroid carcinoma cell lines expressing the aforementioned mutated forms of RET (TT and MZ-CRC-1) and on one lung adenocarcinoma cell line harboring the aforementioned fusion form of RET (LC-2/ad) is reported. As control, the antiproliferative activity of the same compounds on an unrelated non RET-dependent cell line (A2780) is reported. All these compounds show remarkable activity on RET-driven cellular models with respect to the unrelated ones.

[1] = tested on: TT medullary thyroid carcinoma, harboring a mutated RET-C634W receptor; assay: In vitro cell proliferation assay (CellTiterGlo), TT; conditions: Homo sapiens, antiproliferative activity, 144 h exposure
Description: as §1, §2, §3

[2] = tested on: LC-2/ad human lung adenocarcinoma, harboring the CCDC6-RET fusion protein; assay: In vitro cell proliferation assay (CellTiterGlo), LC-2/ad; conditions: antiproliferative activity, 144 h exposure
Description: as §1, §2, §3

[3] = tested on: MZ-CRC-1 medullary thyroid carcinoma, harboring a mutated RET-M918T receptor; assay: In vitro cell proliferation assay (CellTiterGlo), MZ-CRC-1; conditions: Homo sapiens, antiproliferative activity, 144 h exposure
Description: as §1, §2, §3

## Nc1ncnc2c1c(C#Cc1cc(C(=O)NC3CC3)ccc1F)cn2CC(F)(F)F [cmpd 54, 3-{[4-amino-7-(2,2,2-trifluoroethyl)-7H-pyrrolo[2,3-d]pyrimidin-5-yl]ethynyl}-N-cyclopropyl-4-fluorobenzamide]
A2780 ovarian carcinoma
  IC50: 3290 nM
[1]
  IC50: 0.02 µM
[2]
  IC50: 0.053 µM
[3]
  IC50: 0.068 µM

## Nc1ncnc2c1c(C#Cc1cccc(C(=O)NC3CC3)c1)cn2CC(F)(F)F [cmpd 36, 3-{[4-amino-7-(2,2,2-trifluoroethyl)-7H-pyrrolo[2,3-d]pyrimidin-5-yl]ethynyl}-N-cyclopropylbenzamide]
A2780 ovarian carcinoma
  IC50: 1730 nM
[1]
  IC50: 0.053 µM
[2]
  IC50: 0.058 µM
[3]
  IC50: 0.166 µM

## Cn1cc(C#Cc2cccc(C(=O)NC3CC3)c2)c2c(N)ncnc21 [cmpd 93, 3-[(4-amino-7-methyl-7H-pyrrolo[2,3-d]pyrimidin-5-yl)ethynyl]-N-cyclopropylbenzamide]
A2780 ovarian carcinoma
  IC50: 4540 nM
[1]
  IC50: 0.035 µM
[2]
  IC50: 0.241 µM
[3]
  IC50: 0.264 µM
